Results taken from patent US20200223826A1, “Glucose-6-Phosphate Dehydrogenase (G6PD)-Modulating Agents And Methods Of Treating G6PD Deficiency” (The Board of Trustees of the Leland Stanford Junior …, priority 2017, published 2020).

Columns and labels:
[1] = tested on: lymphocytes carrying the Canton variant; test: Glutathione (GSH) measurement in lymphocytes; format: cell-based, human; details: treatment with AG1 for 24 hours
Description: Total glutathione level was measured using a Total Glutathione Quantification Kit (Dojindo), according to the manufacturer's instructions. The assay utilized DTNB (5,5′-dithio-bis-(2-nitrobenzoic acid)) that reacts with glutathione to produce 5-mercapto-2-nitrobenzoic acid, a yellow colored product. Cells were subjected to serum starvation (50-75%) for 48 hours to induce oxidative stress and treated with the compound for 24 hours before measurement. The absorbance was read at 412 nm.

[2] = biological target: T1, G6PD in lymphocyte lysates carrying the Canton variant (Homo sapiens, UniProt P11413, R459L); test: G6PD activity in lymphocyte lysates; format: cell-based; details: in the presence of AG1
T1 construct: host or cells: lymphocytes from a G6PD-deficient subject
Description: Lymphocytes derived from a normal subject (HG 00866) and a G6PD-deficient subject carrying Canton variant in G6PD (HG 02367) were purchased from Coriell Institute and cultured in RPMI 1640 supplemented with 15% fetal bovine serum (FBS), 100 U/ml penicillin, and 100 μg/ml streptomycin. An SH-SY5Y neuroblastoma cell line was cultured in Dulbecco's Modification of Eagle's Medium/Ham's F-12 50/50 Mix supplemented with 10% FBS, 100 U/ml penicillin, and 100 μg/ml streptomycin. A G6PD-deficient subject-derived fibroblast cell line carrying Mediterranean variant and normal fibroblast cell line as control were purchased from Coriell Institute (GM 01152) and ThermoFisher Scientific (C0135C), respectively, and cultured in minimum essential medium supplemented with 15% FBS, 100 U/ml penicillin, and 100 μg/ml streptomycin. All the cell lines were maintained at 37° C. in a humidified incubator with an atmosphere of 5% of CO2 and 95% air.
Enzyme activity was measured by monitoring NADPH production, which was coupled with diaphorase converting resazurin to fluorescent resorufin (excitation at 565 nm and emission at 590 nm); fluorescent signal was thus proportional to G6PD activity. Assays were performed at 25° C. and run for 5 minutes in buffer containing 50 mM Tris (pH 7.4), 0.5 mM EDTA, 3.3 mM MgCl2, 1 U/ml diaphorase, 0.1 mM resazurin. […]

[3] = tested on: human erythrocytes; test: Erythrocyte refrigerated storage assay, protein leakage; format: cell-based; details: AG1 1 μM
Description: (§1) De-identified blood samples were obtained from the Stanford Blood Center. Erythrocytes were collected by filtering the samples through a cellulose slurry to remove platelets and leukocytes and then washed with saline. G6PD activity was measured (Beutler E. Red cell metabolism: A manual of biochemical methods (3rd edition). Grune & Stratton (1984)). […] A 5% erythrocyte suspension was pre-incubated with 1-5 μM AG1 at 4° C. overnight, which was followed by treatment with (or without) either 1 mM chloroquine (CQ) or 1 mM diamide for 3-4 hours at 37° C. (for hemolysis assay with chloroquine, the mixture was incubated under light). Then centrifugation at 1,000 rpm for 5 minutes was followed. Hemoglobin release in the supernatant was monitored by measuring absorbance at 540 nm. […] After wash, the samples were lysed with 0.1% Triton X-100 (final concentration), and the florescence was analyzed with excitation/emission at 485/525 nm. GSH measurement was determined using a Cayman glutathione assay kit (Cayman Chemicals, 703002). […] The absorbance was read at 412 nm. For storage assay, a 5% erythrocyte suspension was stored at 4° C. with and without 1 μM AG1, and hemolysis and G6PD activity were monitored every week for 28 days to examine whether AG1 improves preservation of erythrocytes over time. Protein leakage was also examined by measuring the absorbance of the supernatant of samples at 280 nm. […]

[4] = biological target: T2, Canton G6PD in SH-SY5Y cells (Homo sapiens, UniProt P11413, R459L); test: G6PD activity of SH-SY5Y cells expressing Canton variant; format: cell-based
T2 construct: expressed in transfected cells; host or cells: SH-SY5Y neuroblastoma cells
Description: (§2) Enzyme activity was measured by monitoring NADPH production, which was coupled with diaphorase converting resazurin to fluorescent resorufin (excitation at 565 nm and emission at 590 nm); fluorescent signal was thus proportional to G6PD activity. Assays were performed at 25° C. and run for 5 minutes in buffer containing 50 mM Tris (pH 7.4), 0.5 mM EDTA, 3.3 mM MgCl2, 1 U/ml diaphorase, 0.1 mM resazurin. 10 ng of recombinant enzymes or 10 μg of cell lysates was used for the assay with 10 μM NADP^+ (Sigma) as cofactor and 100 μM G6P (Sigma) as substrate. Steady-state kinetic parameters were obtained by varying concentrations of NADP^+ (0-10 μM) with a constant concentration of G6P (100 μM) and similarly for G6P (0-100 μM) with a constant concentration of NADP^+ (10 μM) with 10 ng of recombinant enzymes. Data analysis was performed using GraphPad Prism software v.6 (GraphPad Software, La Jolla, Calif. USA). Kinetic parameters were obtained by fitting the data to the Michaelis-Menten equation.
Prior to the cellular-based assays using SH-SH5Y cells, duration of overexpression of WT G6PD and Canton variant was examined by transfecting the cells seeded in a 12-well plate. The genes encoding human WT G6PD and Canton variant were first PCR-amplified, which was then inserted into pcDNA 3.1/myc-His C (ThermoFisher Scientific) using HindIII and XhoI. […]

[5] = biological target: T3, WT G6PD (Homo sapiens, UniProt P11413); test: WT G6PD enzyme activity, recombinant enzyme; format: biochemical
T3 construct: His (pET-28a) (N, cleaved yes); made in house; host or cells: E. coli C43 (DE3)
Description: as §2

[6] = tested on: human erythrocytes; test: ROS levels in erythrocytes under oxidative stressors; format: cell-based; details: drug-induced oxidative stress
Description: as §1

[7] = biological target: T4, Kaiping (R463H) G6PD (Homo sapiens, UniProt P11413, R463H); test: G6PD variant enzyme activity; format: biochemical
T4 construct: His (pET-28a) (N, cleaved yes); made in house; host or cells: E. coli C43 (DE3)
Description: as §2

[8] = biological target: T5, Mediterranean (S188F) G6PD (Homo sapiens, UniProt P11413, S188F); test: G6PD variant enzyme activity; format: biochemical
T5 construct: His (pET-28a) (N, cleaved yes); made in house; host or cells: E. coli C43 (DE3)
Description: as §2

[9] = biological target: T6, A- (V68M, N126D) G6PD (Homo sapiens, UniProt P11413, N126D/V68M); test: G6PD variant enzyme activity; format: biochemical
T6 construct: His (pET-28a) (N, cleaved yes); made in house; host or cells: E. coli C43 (DE3)
Description: as §2

T3 sequence (P11413 whole entry): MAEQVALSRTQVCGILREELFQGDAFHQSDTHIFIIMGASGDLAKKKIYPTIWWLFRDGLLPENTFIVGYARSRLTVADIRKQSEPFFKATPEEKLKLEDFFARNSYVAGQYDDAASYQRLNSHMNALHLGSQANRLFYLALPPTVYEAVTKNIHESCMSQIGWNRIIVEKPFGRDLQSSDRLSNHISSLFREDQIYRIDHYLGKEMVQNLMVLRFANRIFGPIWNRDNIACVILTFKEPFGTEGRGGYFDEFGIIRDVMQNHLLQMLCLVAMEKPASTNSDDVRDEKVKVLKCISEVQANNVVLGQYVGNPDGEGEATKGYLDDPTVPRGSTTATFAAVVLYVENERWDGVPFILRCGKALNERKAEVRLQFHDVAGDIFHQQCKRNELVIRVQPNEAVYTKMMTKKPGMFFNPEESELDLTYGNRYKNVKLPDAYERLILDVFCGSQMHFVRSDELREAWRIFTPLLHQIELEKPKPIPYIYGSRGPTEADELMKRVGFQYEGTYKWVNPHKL
T5 sequence (P11413 whole entry S188F): as the sequence (P11413 whole entry) above, with S188F counted along it
T4 sequence (P11413 whole entry R463H): as the sequence (P11413 whole entry) above, with R463H counted along it
T2 sequence (P11413 2-515 R459L): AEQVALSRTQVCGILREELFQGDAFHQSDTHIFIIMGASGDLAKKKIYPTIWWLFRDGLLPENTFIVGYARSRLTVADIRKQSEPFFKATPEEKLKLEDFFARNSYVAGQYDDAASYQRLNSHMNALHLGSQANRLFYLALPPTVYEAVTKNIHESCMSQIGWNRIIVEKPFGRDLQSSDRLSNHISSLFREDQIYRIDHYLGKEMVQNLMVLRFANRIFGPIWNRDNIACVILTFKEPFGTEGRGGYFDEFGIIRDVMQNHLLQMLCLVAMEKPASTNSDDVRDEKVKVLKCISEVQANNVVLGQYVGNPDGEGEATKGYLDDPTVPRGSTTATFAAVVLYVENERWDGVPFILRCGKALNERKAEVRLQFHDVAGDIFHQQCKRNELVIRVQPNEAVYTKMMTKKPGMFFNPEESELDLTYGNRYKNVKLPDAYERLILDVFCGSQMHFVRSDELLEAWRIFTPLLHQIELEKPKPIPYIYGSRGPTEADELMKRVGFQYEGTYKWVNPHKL
T1 sequence (P11413 2-515 R459L limits assumed): as the sequence (P11413 2-515 R459L) above
T6 sequence (P11413 whole entry V68M/N126D): as the sequence (P11413 whole entry) above, with V68M, N126D counted along it

Compound: SCCNCCc1c[nH]c2ccccc12 [AG1, 2-[2-(1H-indol-3-yl)ethylamino]ethanethiol]
- level of GSH [1]: slightly increased
- enhancement of enzymatic activity in lymphocyte lysates [2]: 78%
- protein leakage [3]: decreased
- G6PD activity [4]: mild increase
- increase of WT G6PD activity over basal activity [5]: about 20%
- ROS levels [6]: reduced
- activation of variant [7]: up to 2 fold
- activation of variant [8]: up to 2 fold
- activation of variant [9]: up to 2 fold
